Experimental data published in US9181262B2, “Crystalline forms of a dipeptidyl peptidase-IV inhibitors” (Merck Sharp & Dohme Corp, priority 2011, dated 2015).
≈ marks a conversion by molar mass, not a printed value.

Key:
solubility in water = format: physicochemical; conditions: crystalline forms of Compound I (anhydrous free base)
[1] = relative stability of crystalline forms (turnover experiments); format: physicochemical; conditions: for relative phase stability of the crystalline form: relationship between polymorphs of Compound I
Description: Crystalline Form II was produced by re-crystallization of Form I in isopropyl acetate and heptane 1:1 at room temperature. Form II was characterized using XRPD, ssNMR, DSC, TGA and IR. […] 17 hr, IPAc 60° C. for one day, H2O 60° C. over two weeks, three days, NMP-water 1-1 35° C. over three days.

relative phase stability of the crystalline form [1]	Structure (SMILES)	also measured
–	CS(=O)(=O)n1cc2c(n1)CN([C@H]1CO[C@H](c3cc(F)ccc3F)[C@@H](N)C1)C2 [Compound I, (2R,3S,5R)-2-(2,5-Difluorophenyl)-5-[2-(methylsulfonyl)-2,6-dihydropyrrolo[3,4-c]pyrazol-5(4H)-yl]tetrahydro-2H-pyran-3-amine]	solubility (solubility in water): ~2000 µg/mL (≈ 5.02 mM)
most stable phase above 13 °C	CS(=O)(=O)n1cc2c(n1)CN([C@H]1CO[C@H](c3cc(F)ccc3F)[C@@H](N)C1)C2 [Form I, (2R,3S,5R)-2-(2,5-Difluorophenyl)-5-[2-(methylsulfonyl)-2,6-dihydropyrrolo[3,4-c]pyrazol-5(4H)-yl]tetrahydro-2H-pyran-3-amine]	–
–	CS(=O)(=O)n1cc2c(n1)CN([C@H]1CO[C@H](c3cc(F)ccc3F)[C@@H](N)C1)C2 [Form II, (2R,3S,5R)-2-(2,5-Difluorophenyl)-5-[2-(methylsulfonyl)-2,6-dihydropyrrolo[3,4-c]pyrazol-5(4H)-yl]tetrahydro-2H-pyran-3-amine]	conversion of Form II into Form I ([1]; turnover experiments with 50-50 seed: DCM-Heptane 25° C., IPAc 25° C. and 60° C., H2O 60° C., NMP-water 1-1 35° C.): slow but observed in all turnover experiments
metastable to Form I and II	CS(=O)(=O)n1cc2c(n1)CN([C@H]1CO[C@H](c3cc(F)ccc3F)[C@@H](N)C1)C2 [Form III, (2R,3S,5R)-2-(2,5-Difluorophenyl)-5-[2-(methylsulfonyl)-2,6-dihydropyrrolo[3,4-c]pyrazol-5(4H)-yl]tetrahydro-2H-pyran-3-amine]	–
metastable to Form I and II	CS(=O)(=O)n1cc2c(n1)CN([C@H]1CO[C@H](c3cc(F)ccc3F)[C@@H](N)C1)C2 [Form IV, (2R,3S,5R)-2-(2,5-Difluorophenyl)-5-[2-(methylsulfonyl)-2,6-dihydropyrrolo[3,4-c]pyrazol-5(4H)-yl]tetrahydro-2H-pyran-3-amine]	–
